Measurements published in patent publication US11013232B2, “Hydrotesting and mothballing composition and method of using combination products for multifunctional water treatment” (priority 2014, dated 2021).

System: 5 species of bacteria in a simulated marine environment
Assay: Molecular technique biocidal properties (qPCR of 16s rDNA)
Type: cell-based
Conditions: for 7 day DNA (copies) / 14 day DNA (copies) / 21 day DNA (copies): dose rate 500 ppm
Protocol: Molecular techniques were performed on the best performing (Formulation 3) commercial product and the embodiments of the invention Formulation 1 and Formulation 2. This aim of the study was to investigate the efficiency of the biocides on inhibiting 5 species of bacteria in a simulated marine environment. This study was conducted over a 21 day period and involved several marine species of bacteria which have all been previously linked with attributing to corrosion. […] A control was used in the testing and glutaraldehyde was selected for this role.
For each species 3 individual inoculums for each replicate were grown from an isolated single colony picked from agar plates. The species used were Desulfovibrio desulfricans (SRB), Shewanella putrefaciens (IRB), Thiobacillus thioparus (SOB), Pseudomonas aeruginosa (biofilm) and Methanolibacter arachidis (methanogens). Following 24 hours of incubation on an orbital shaker, cells were centrifuged and the pelleted cells washed with phosphate buffered saline (PBS). Washed cells were then suspended in PBS and measured to a set optical density via UV spectrometry at 600 nm. Each species was then used to inoculate cultures to give a final starter concentration of 0.01 at 600 nm. Each treatment was conducted in triplicate with each replicate being started at alternative time periods to reduce culture bias and human error. Three negative controls and three positive controls were established for each temperature under study.
The trials were conducted in 125 mL Erlenmeyer flasks containing 75 mL of marine broth, which were subsequently autoclaved for 20 min at 121° C. All bottles were incubated at either 4° C. or 25° C. on an orbital shaking platform at 150 rpm. Triplicate biocide treatments were established at each temperature at concentrations of 500, 750 and 1000 ppm. At each weekly interval, 2 mL samples were collected at 7, 14 and 21 days from each bottle. These were subjected to a co-extraction of DNA which was measured with qPCR. The gene target in this study was 16s rDNA a conserved gene present in all bacteria and Achaea.

O=CCCCC=O [Glutaraldehyde, Pentane-1,5-dial]
fold increase in growth compared to the highest level seen in the other biocides (4° C., 500 ppm): 15.8 fold | fold increase in copy number compared to the highest count in the invention formulation biocide flasks (25° C., 500 ppm): 670 fold | 7 day DNA (copies) (4° C.): 2.60E+04 copies | 14 day DNA (copies) (4° C.): 1.11E+08 copies | 21 day DNA (copies) (4° C.): 7.22E+07 copies | 7 day DNA (copies) (25° C.): 8.85E+04 copies | 14 day DNA (copies) (25° C.): 1.00E+03 copies | 21 day DNA (copies) (25° C.): 2.51E+10 copies
